Assay results published in patent US10986837B2, “Lactam solubility” (Conopco, Inc., priority 2015, dated 2021).

Tests used:
[1] = Lactam solubility in bio-surfactant solutions (48 h agitation, filtration, HPLC); format: physicochemical
Protocol: Bio-surfactant solutions at the levels shown in the results below were prepared for screening. The maximum level tested was dictated by the solubility of the surfactant in water. The following representative example uses 4-(4-chlorophenyl)-5-methylene-pyrrol-2-one.
Solid lactam was weighed into Whatman® Mini Uniprep sample vials, fitted with a 0.45 μm nylon filter (2.7 to 3.3 mg per vial). 50 μL of a solvent solution was placed into each sample vial, the vial capped and shaken briefly by hand to agitate the solid, then placed on a Thermo Labsystems Wellmix® plate shaker and continuously agitated for 48 hours. After this time, the excess solid in the vial was removed using the integral filter membrane and the resultant solution analysed by HPLC to determine the level of dissolved lactam.
Samples were analysed using an Agilent 1200® series HPLC fitted with a Hypersil Gold C18 column (15×2.1×3 μm), using isocratic elution with 60/40 methanol/water (+0.1% Formic Acid) at a flow rate of 0.4 mL/min, using a DAD detector at 285 nm. 4-(4-Chlorophenyl)-5-methylene-pyrrol-2-one has a retention time of ˜2.8 minutes.
Each test surfactant solution was tested in triplicate and the mean value of lactam in solution calculated. Values of solubility were quoted as the improvement in aqueous solubility vs water alone (i.e. mean level of lactam dissolved in water+solvent/mean level of lactam dissolved in water) to allow comparison between screens conducted on different days.

[2] = produced by Rhodococcus erythropolis grown on n-alkane; cited from earlier work
[3] = Additive Di-rhamnolipid R2, 0% in water (water alone)
[4] = Additive Di-rhamnolipid R2, 0.1% in water
[5] = Additive Di-rhamnolipid R2, 0.5% in water
[6] = Additive Di-rhamnolipid R2, 1% in water
[7] = Additive Di-rhamnolipid R2, 2% in water
[8] = Additive Mono-rhamnolipid R1, 0% in water (water alone)
[9] = Additive Mono-rhamnolipid R1, 0.1% in water
[10] = Additive Mono-rhamnolipid R1, 0.5% in water
[11] = Additive Mono-rhamnolipid R1, 1% in water
[12] = Additive Mono-rhamnolipid R1, 2% in water
[13] = Additive Mono-rhamnolipid R1, 4% in water

## C=C1NC(=O)C=C1c1ccc(Cl)cc1 [4-(4-chlorophenyl)-5-methylene-pyrrol-2-one]
[1]; [3]
  Mean Lactam Level in Solution: 2.7 ppm
  Solubility Increase vs water alone: 1.0
[1]; [4]
  Mean Lactam Level in Solution: 15.2 ppm
  Solubility Increase vs water alone: 5.7
[1]; [5]
  Mean Lactam Level in Solution: 42.6 ppm
  Solubility Increase vs water alone: 15.9
[1]; [6]
  Mean Lactam Level in Solution: 77.5 ppm
  Solubility Increase vs water alone: 28.9
[1]; [7]
  Mean Lactam Level in Solution: 139.6 ppm
  Solubility Increase vs water alone: 52.1
[1]; [8]
  Mean Lactam Level in Solution: 2.7 ppm
  Solubility Increase vs water alone: 1.0
[1]; [9]
  Mean Lactam Level in Solution: 10.9 ppm
  Solubility Increase vs water alone: 4.1
[1]; [10]
  Mean Lactam Level in Solution: 39.3 ppm
  Solubility Increase vs water alone: 14.7
[1]; [11]
  Mean Lactam Level in Solution: 75.3 ppm
  Solubility Increase vs water alone: 28.1
[1]; [12]
  Mean Lactam Level in Solution: 149.7 ppm
  Solubility Increase vs water alone: 55.9
[1]; [13]
  Mean Lactam Level in Solution: 194.8 ppm
  Solubility Increase vs water alone: 72.7

## Phosphatidylethanolamine
[2]
  CMC: 30 mg/L
  interfacial tension between water and hexadecane: less than 1 mN m^−1
